Results as given in ChEMBL document CHEMBL1151039, “Muscarinic antagonist activity of 3-(5-alkoxy-oxazol-2-yl)-1,2,5,6-tetrahydropyridines” (Bioorg Med Chem Lett, 1994).
pIC50: −log10 of the molar value.

What was measured:
[1] = target: Muscarinic acetylcholine receptor; assay: Inhibition of [3H]pirenzepine binding to muscarinic receptor in rat cortical homogenates
Mus musculus = assay: In vivo antagonist activity measured as inhibition of oxotremorine induced tremors in mice at 1 mg/kg of ip administration; assay type: functional; settings: route intraperitoneal
Rattus norvegicus = species: Rattus norvegicus; assay: In vitro inhibition of acetylcholine induced phosphatidyl inositol hydrolysis in a rat cerebral cortex slice preparation; assay type: functional

SMILES	Ki [1] [nM]	AD50 (Mus musculus) [mg/kg]	pIC50 (Rattus norvegicus)
CCOc1oc(C2=CCCN(C)C2)nc1C(C)CC (stereo not given)	0.8	–	–
CCOc1oc(C2=CCCN(C)C2)nc1C	33	–	–
CCCCOc1oc(C2=CCCN(C)C2)nc1C(C)CC (stereo not given)	1.5	–	–
COc1oc(C2=CCCN(C)C2)nc1C	90	–	–
CCCCc1nc(C2=CCCN(C)C2)oc1OC	11	–	–
CN1[C@@H]2C[C@@H](OC(=O)[C@H](CO)c3ccccc3)C[C@H]1[C@@H]1O[C@@H]12 [SCOPOLAMINE]	–	0.1	8.05
COc1cnc(C2=CCCN(C)C2)o1	> 1000	–	–
COc1oc(C2=CCCN(C)C2)nc1CC(C)C	25	–	–
CCC(C)c1nc(C2=CCCN(C)C2)oc1OC (stereo not given)	2	–	–
CCc1nc(C2=CCCN(C)C2)oc1OC	30	–	–
CCCCCCOc1oc(C2=CCCN(C)C2)nc1C(C)CC (stereo not given)	22	–	–
COc1oc(C2=CCCN(C)C2)nc1C(C)C	10	–	–
COc1oc(C2=CCCN(C)C2)nc1Cc1ccccc1	16	–	–
CCCOc1oc(C2=CCCN(C)C2)nc1C(C)CC (stereo not given)	0.8	–	–
